# Source: patent US20250296971A1, “GASTRIC INHIBITORY PEPTIDE RECEPTOR LIGANDS” (priority 2021, published 2025)
# *1 amine or outer side, *2 acyl side, *3 side chain or, on linkers, in order; H or OH if unused. Where a SMILES comes first, the peptide text is derived from it. Bridges are numbered along the chain shown (N, C = ends). [ ]: non-standard residue; d: D form. The star is where a group is joined. X5 = NC(=O)[C@H](CCCCNC(=O)CN1CCN(CC(=O)O)CCN(CC(=O)O)CCN(CC(=O)O)CC1)NC(=O)CCC(=O)NCCCOCCOCCOCCCN*; X3 = O=C(O)CN1CCN(CC(=O)O)CCN(CC(=O)NCCCOCCOCCOCCCN*)CCN(CC(=O)O)CC1; Trp(5-Cl) = N[C@@H](Cc1c[nH]c2ccc(Cl)cc12)C(=O)O; Pyridine(2,6-diCH2) = c1cc(C[*:1])nc(C[*:2])c1; Trp(7-aza) = N[C@@H](Cc1c[nH]c2ncccc12)C(=O)O; X22 = O=C([C@H](Cc1cccc(Cl)c1Cl)N[*:1])[*:2]; 2Nal = N[C@@H](Cc1ccc2ccccc2c1)C(=O)O; mXylylene = c1cc(C[*:1])cc(C[*:2])c1; Bta = N[C@@H](Cc1csc2ccccc12)C(=O)O; Hyp = O=C(O)[C@@H]1C[C@@H](O)CN1; NMeE = CN[C@@H](CCC(=O)O)C(=O)O; Cha = N[C@@H](CC1CCCCC1)C(=O)O; Suc = O=C(CCC(=O)[*:2])[*:1]; Tle = CC(C)(C)[C@H](N)C(=O)O; Thp = NC1(C(=O)O)CCOCC1; Aib = CC(C)(N)C(=O)O
# Molecular target: T1, GIPR (CHO-K1-hGIPR cells) (Homo sapiens, UniProt P48546)
# T1 construct: host or cells: CHO-K1
# T1 sequence (P48546 22-466): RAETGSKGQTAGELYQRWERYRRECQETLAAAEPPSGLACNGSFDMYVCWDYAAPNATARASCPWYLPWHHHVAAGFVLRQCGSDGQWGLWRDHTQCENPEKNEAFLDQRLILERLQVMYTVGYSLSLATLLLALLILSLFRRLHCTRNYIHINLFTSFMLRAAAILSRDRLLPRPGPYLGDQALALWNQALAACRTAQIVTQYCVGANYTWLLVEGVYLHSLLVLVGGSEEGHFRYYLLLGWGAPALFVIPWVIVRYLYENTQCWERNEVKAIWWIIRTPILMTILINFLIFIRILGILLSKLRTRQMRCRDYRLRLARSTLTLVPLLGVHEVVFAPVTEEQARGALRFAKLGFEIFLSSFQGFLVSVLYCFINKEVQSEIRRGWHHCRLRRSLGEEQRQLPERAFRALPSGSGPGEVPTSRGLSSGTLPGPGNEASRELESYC
# Assay: FACS binding assay
# Details: competition with 20 nM GIP-057, 4° C. for 1 hour, read-out: pIC50 Category (converted)
# In short: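 Read-out: flow cytometric median fluorescence intensity, APC/Cy5 channel, plotted vs peptide conc.; 4PL fit → EC50/pEC50 or IC50/pIC50. Cells: CHO-K1-hGIPR, Accutase-detached, 500.000/mL in PBS + 1% FCS. Detection: APC-streptavidin 1 μg/mL, 30 min, on ice.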
row,IC50,SMILES
1,100 to 794 nM,"CC[C@H](C)[C@@H]1NC(=O)[C@H](CC(C)C)NC(=O)C(C)(C)NC(=O)[C@@H](NC(=O)[C@H](CC(C)C)NC(=O)[C@H](CCC(=O)O)NC(=O)[C@@H]2CCCN2C(=O)[C@H](Cc2c[nH]c3ccccc23)NC(=O)[C@H](Cc2csc3ccccc23)NC(=O)[C@H](CC(=O)O)NC(C)=O)CSCc2cccc(c2)CSC[C@@H](C(=O)NCCCOCCOCCOCCCNC(=O)CCC(=O)N[C@@H](CCCCNC(=O)CN2CCN(CC(=O)O)CCN(CC(=O)O)CCN(CC(=O)O)CC2)C(N)=O)NC1=O [GIP-273, Ac-Asp-Bta-Trp-Pro-Glu-Leu-[Cys(3MeBn)-Aib-Leu-Ile-Cys]-Ttds-Lys(DOTA)-NH2] (Ac-D[Bta]WPELC[Aib]LIC-X5; linker 7-11 via mXylylene)"
2,100 to 794 nM,"CC[C@H](C)[C@@H]1NC(=O)[C@H](CC(C)C)NC(=O)C(C)(C)NC(=O)[C@@H](NC(=O)[C@H](CC(C)C)NC(=O)[C@H](CCC(=O)O)N(C)C(=O)[C@@H]2CCCN2C(=O)[C@H](Cc2c[nH]c3ccccc23)NC(=O)[C@H](Cc2c[nH]c3ccccc23)NC(=O)[C@H](CC(=O)O)NC(C)=O)CSCc2cccc(c2)CSC[C@@H](C(=O)NCCCOCCOCCOCCCNC(=O)CCC(=O)N[C@@H](CCCCNC(=O)CN2CCN(CC(=O)O)CCN(CC(=O)O)CCN(CC(=O)O)CC2)C(N)=O)NC1=O [GIP-274, Ac-Asp-Trp-Trp-Pro-Nme-Leu-[Cys(3MeBn)-Aib-Leu-Ile-Cys]-Ttds-Lys(DOTA)-NH2] (Ac-DWWP[NMeE]LC[Aib]LIC-X5; linker 7-11 via mXylylene)"
3,100 to 794 nM,"CC[C@H](C)[C@@H]1NC(=O)[C@H](CC(C)C)NC(=O)C(C)(C)NC(=O)[C@@H](NC(=O)[C@@H](NC(=O)[C@H](CCC(=O)O)NC(=O)[C@@H]2CCCN2C(=O)[C@H](Cc2c[nH]c3ccccc23)NC(=O)[C@H](Cc2c[nH]c3ccccc23)NC(=O)[C@H](CC(=O)O)NC(C)=O)C(C)(C)C)CSCc2cccc(c2)CSC[C@@H](C(=O)NCCCOCCOCCOCCCNC(=O)CCC(=O)N[C@@H](CCCCNC(=O)CN2CCN(CC(=O)O)CCN(CC(=O)O)CCN(CC(=O)O)CC2)C(N)=O)NC1=O [GIP-275, Ac-Asp-Trp-Trp-Pro-Glu-Tle-[Cys(3MeBn)-Aib-Leu-Ile-Cys]-Ttds-Lys(DOTA)-NH2] (Ac-DWWPE[Tle]C[Aib]LIC-X5; linker 7-11 via mXylylene)"
4,100 to 794 nM,"CC[C@H](C)[C@@H]1NC(=O)[C@H](C(C)(C)C)NC(=O)C(C)(C)NC(=O)[C@@H](NC(=O)[C@H](CC(C)C)NC(=O)[C@H](CCC(=O)O)NC(=O)[C@@H]2CCCN2C(=O)[C@H](Cc2c[nH]c3ccccc23)NC(=O)[C@H](Cc2c[nH]c3ccccc23)NC(=O)[C@H](CC(=O)O)NC(C)=O)CSCc2cccc(c2)CSC[C@@H](C(=O)NCCCOCCOCCOCCCNC(=O)CCC(=O)N[C@@H](CCCCNC(=O)CN2CCN(CC(=O)O)CCN(CC(=O)O)CCN(CC(=O)O)CC2)C(N)=O)NC1=O [GIP-276, Ac-Asp-Trp-Trp-Pro-Glu-Leu-[Cys(3MeBn)-Aib-Tle-Ile-Cys]-Ttds-Lys(DOTA)-NH2] (Ac-DWWPELC[Aib][Tle]IC-X5; linker 7-11 via mXylylene)"
5,100 to 794 nM,"CC[C@H](C)[C@@H]1NC(=O)[C@H](CC(C)C)NC(=O)C(C)(C)NC(=O)[C@@H](NC(=O)[C@H](CC(C)C)NC(=O)[C@H](CCC(=O)O)NC(=O)[C@@H]2CCCN2C(=O)[C@H](Cc2c[nH]c3ccccc23)NC(=O)[C@H](Cc2c[nH]c3ccc(Cl)cc23)NC(=O)[C@H](CC(=O)O)NC(C)=O)CSCc2cccc(c2)CSC[C@@H](C(=O)NCCCOCCOCCOCCCNC(=O)CCC(=O)N[C@@H](CCCCNC(=O)CN2CCN(CC(=O)O)CCN(CC(=O)O)CCN(CC(=O)O)CC2)C(N)=O)NC1=O [GIP-277, Ac-Asp-5Clw-Trp-Pro-Glu-Leu-[Cys(3MeBn)-Aib-Leu-Ile-Cys]-Ttds-Lys(DOTA)-NH2] (Ac-D[Trp(5-Cl)]WPELC[Aib]LIC-X5; linker 7-11 via mXylylene)"
6,100 to 794 nM,"CC(=O)N[C@@H](CC(=O)O)C(=O)N[C@@H](Cc1c[nH]c2ccccc12)C(=O)N[C@@H](Cc1c[nH]c2ccccc12)C(=O)N1CCC[C@H]1C(=O)N[C@@H](CCC(=O)O)C(=O)N[C@@H](CC(C)C)C(=O)N[C@H]1CSCc2cccc(c2)CSC[C@@H](C(=O)NCCCOCCOCCOCCCNC(=O)CCC(=O)N[C@@H](CCCCNC(=O)CN2CCN(CC(=O)O)CCN(CC(=O)O)CCN(CC(=O)O)CC2)C(N)=O)NC(=O)[C@H](CC2CCCCC2)NC(=O)[C@H](CC(C)C)NC(=O)C(C)(C)NC1=O [GIP-278, Ac-Asp-Trp-Trp-Pro-Glu-Leu-[Cys(3MeBn)-Aib-Leu-Cha-Cys]-Ttds-Lys(DOTA)-NH2] (Ac-DWWPELC[Aib]L[Cha]C-X5; linker 7-11 via mXylylene)"

# The next lines start with the compound.
row,SMILES,IC50
1,"CC[C@H](C)[C@@H]1NC(=O)[C@H](CC(C)C)NC(=O)C2(CCOCC2)NC(=O)[C@@H](NC(=O)[C@@H](CC(C)C)NC(=O)[C@H](CCC(=O)O)NC(=O)[C@@H]2C[C@@H](O)CN2C(=O)[C@H](Cc2cccc(Cl)c2Cl)NC(=O)[C@H](Cc2c[nH]c3ccccc23)NC(=O)[C@H](CC(=O)O)NC(C)=O)CSCc2cccc(n2)CSC[C@@H](C(N)=O)NC1=O [GIP-265, Ac-Asp-Trp-Egp-Hyp-Glu-leu-[Cys(2Lut)-Thp-Leu-Ile-Cys]-NH2] (Ac-DW[X22][Hyp]E[dL]C[Thp]LIC-NH2; linker 7-11 via Pyridine(2,6-diCH2))",10 to 79.4 nM
2,"CC(=O)N[C@@H](CC(=O)O)C(=O)N[C@@H](Cc1c[nH]c2ccccc12)C(=O)N[C@@H](Cc1c[nH]c2ccc(Cl)cc12)C(=O)N1C[C@H](O)C[C@H]1C(=O)N[C@@H](CCC(=O)O)C(=O)N[C@H](CC(C)C)C(=O)N[C@H]1CSCc2cccc(n2)CSC[C@@H](C(N)=O)NC(=O)[C@H](Cc2ccccc2)NC(=O)[C@H](CC(C)C)NC(=O)C2(CCOCC2)NC1=O [GIP-266, Ac-Asp-Trp-5Clw-Hyp-Glu-leu-[Cys(2Lut)-Thp-Leu-Phe-Cys]-NH2] (Ac-DW[Trp(5-Cl)][Hyp]E[dL]C[Thp]LFC-NH2; linker 7-11 via Pyridine(2,6-diCH2))",10 to 79.4 nM
3,"CC[C@H](C)[C@@H]1NC(=O)[C@H](CC(C)C)NC(=O)C2(CCOCC2)NC(=O)[C@@H](NC(=O)[C@@H](CC(C)C)NC(=O)[C@H](CCC(=O)O)NC(=O)[C@@H]2C[C@@H](O)CN2C(=O)[C@H](Cc2c[nH]c3ncccc23)NC(=O)[C@H](Cc2c[nH]c3ccccc23)NC(=O)[C@H](CC(=O)O)NC(C)=O)CSCc2cccc(n2)CSC[C@@H](C(N)=O)NC1=O [GIP-267, Ac-Asp-Trp-7Nw-Hyp-Glu-leu-[Cys(2Lut)-Thp-Leu-Ile-Cys]-NH2] (Ac-DW[Trp(7-aza)][Hyp]E[dL]C[Thp]LIC-NH2; linker 7-11 via Pyridine(2,6-diCH2))",10 to 79.4 nM
4,"CC[C@H](C)[C@@H]1NC(=O)[C@H](CC(C)C)NC(=O)[C@@H](C)NC(=O)[C@@H](NC(=O)[C@@H](CC(C)C)NC(=O)[C@H](CCC(=O)O)NC(=O)[C@@H]2CCCN2C(=O)[C@H](Cc2c[nH]c3ccccc23)NC(=O)[C@H](Cc2c[nH]c3ccccc23)NC(=O)[C@H](CC(=O)O)NC(=O)CCC(=O)NCCCOCCOCCOCCCNC(=O)CN2CCN(CC(=O)O)CCN(CC(=O)O)CCN(CC(=O)O)CC2)CSCc2cccc(c2)CSC[C@@H](C(N)=O)NC1=O [GIP-268, DOTA-Ttds-Asp-Trp-Trp-Pro-Glu-leu-[Cys(3MeBn)-ala-Leu-Ile-Cys]-NH2] ({X3-Suc}-DWWPE[dL]C[dA]LIC-NH2; linker 7-11 via mXylylene)",100 to 794 nM
5,"CC[C@H](C)[C@@H]1NC(=O)[C@H](CC(C)C)NC(=O)[C@@H](C)NC(=O)[C@@H](NC(=O)[C@H](CC(C)C)NC(=O)[C@@H](CCC(=O)O)NC(=O)[C@@H]2CCCN2C(=O)[C@H](Cc2c[nH]c3ccccc23)NC(=O)[C@H](Cc2c[nH]c3ccccc23)NC(=O)[C@H](CC(=O)O)NC(=O)CCC(=O)NCCCOCCOCCOCCCNC(=O)CN2CCN(CC(=O)O)CCN(CC(=O)O)CCN(CC(=O)O)CC2)CSCc2cccc(c2)CSC[C@@H](C(N)=O)NC1=O [GIP-269, DOTA-Ttds-Asp-Trp-Trp-Pro-glu-Leu-[Cys(3MeBn)-ala-Leu-Ile-Cys]-NH2] ({X3-Suc}-DWWP[dE]LC[dA]LIC-NH2; linker 7-11 via mXylylene)",100 to 794 nM
6,"CC[C@H](C)[C@@H]1NC(=O)[C@H](CC(C)C)NC(=O)[C@@H](C)NC(=O)[C@@H](NC(=O)[C@H](CC(C)C)NC(=O)[C@H](CCC(=O)O)NC(=O)[C@@H]2CCCN2C(=O)[C@H](Cc2c[nH]c3ccccc23)NC(=O)[C@H](Cc2c[nH]c3ccccc23)NC(=O)[C@H](CC(=O)O)NC(=O)CCC(=O)NCCCOCCOCCOCCCNC(=O)CN2CCN(CC(=O)O)CCN(CC(=O)O)CCN(CC(=O)O)CC2)CSCc2cccc(c2)CSC[C@@H](C(N)=O)NC1=O [GIP-271, DOTA-Ttds-asp-Trp-Trp-Pro-Glu-Leu-[Cys(3MeBn)-ala-Leu-Ile-Cys]-NH2] ({X3-Suc}-DWWPELC[dA]LIC-NH2; linker 7-11 via mXylylene)",100 to 794 nM
7,"CC[C@H](C)[C@@H]1NC(=O)[C@H](CC(C)C)NC(=O)C(C)(C)NC(=O)[C@@H](NC(=O)[C@H](CC(C)C)NC(=O)[C@H](CCC(=O)O)NC(=O)[C@@H]2CCCN2C(=O)[C@H](Cc2c[nH]c3ccccc23)NC(=O)[C@H](Cc2ccc3ccccc3c2)NC(=O)[C@H](CC(=O)O)NC(C)=O)CSCc2cccc(c2)CSC[C@@H](C(=O)NCCCOCCOCCOCCCNC(=O)CCC(=O)N[C@@H](CCCCNC(=O)CN2CCN(CC(=O)O)CCN(CC(=O)O)CCN(CC(=O)O)CC2)C(N)=O)NC1=O [GIP-272, Ac-Asp-2Ni-Trp-Pro-Glu-Leu-[Cys(3MeBn)-Aib-Leu-Ile-Cys]-Ttds-Lys(DOTA)-NH2] (Ac-D[2Nal]WPELC[Aib]LIC-X5; linker 7-11 via mXylylene)",100 to 794 nM
